According to US20260265179A1, “PHOTOSWITCHABLE COMPOUNDS AND AFFINITY LIGANDS, AND THEIR USE FOR THE OPTICAL CONTROL OF AFFINITY MATRICES” (AFC Innovations GmbH, priority 2023, published 2026):

B1: Ps2-SpG #1: Protein G variant SpG #1 (SEQ ID NO. 18) modified with photoswitch PS2 (conjugate)
chain: MATKASKGGGGTTYRLILNGVTLSGETTTEACDAATAERVFRQYANDYGVDGEWTYDCATRTFTVTEGEDEDEDED
modifications: photoswitch PS2
B2: Ps2-Ppl #1: Protein L variant PpL #1 (SEQ ID NO. 19) modified with photoswitch PS2 (conjugate)
chain: MATKASKGGGGASEEVTIRVNLIFADGSTQCAEFRGTFEEATAEAYAYADLLARENGEYTACLEDGGNTINIRFAGEDEDEDED
modifications: photoswitch PS2

Experiments:
[1] = Stability of photoswitch in presence of TCEP during derivatization reaction; format: physicochemical; settings: 1 mM TCEP, pH 8.5, 35° C., 16 h
Procedure: Freshly degassed and reduced SpA #2 (650 μM, 1.3 μmol, 10 mg, 1 eq) in a total volume of 2 ml was diluted with the same degassed buffer (100 mM sodium borate, 150 mM NaCl, 1 mM TCEP, pH 8.5) to a final protein concentration of 50 μM. This solution was stirred under nitrogen atmosphere while 2.2 mg PS2 (2.6 μmol, 2 eq) dissolved in 0.26 ml DMF, which has been illuminated with red light (635 nm) for 5 min, was added in one portion. The reaction was illuminated with red light and stirred for 16 h at 35° C. […] The derivatization reaction results in a […] amount of intramolecular cross-linked species. Further purification steps by anion exchange chromatography and SEC were performed to remove small amounts of cross-linked species and higher oligomers.

[2] = Thermal cis to trans relaxation of PS4, HPLC; format: physicochemical; settings: 25° C., kept in the dark after yellow light (593 nm) for 2 min
[3] = system: immunoglobulin G (IgG) mixture (Cutaquig); experiment: Light-controlled affinity purification of IgG from polyclonal antibody mixture Cutaquig; format: binding; settings: sample application and washing under red light, elution under blue light; immobilized on NHS-Agarose
Procedure: For the functional assessment of the light-switchable affinity matrices, these were encased within a transparent acrylic glass housing, featuring a thickness of 2 mm, to achieve a settled bed volume (SBV) of 250 μl. A LED array equipped with lenses capable of alternating between peak wavelengths of 635 nm (red) and 465 nm (blue) was positioned adjacent to the housing. This configuration ensured thorough and efficient illumination of the entire resin material contained within. The performance of the light-switchable affinity matrix was tested using the polyclonal antibody mixture Cutaquig® (Octapharma) as a substrate.
Initially, the column was equilibrated with 3 mL of running buffer (50 mM TrisHCl, pH 7.6, 150 mM NaCl) using an FPLC system (AKTA Pure 25, Cytiva Life Science). The affinity matrix was then loaded with sample to achieve a 60% breakthrough. Unbound proteins and impurities were removed by washing the column with 7.5 mL of the same running buffer. Both, the sample application and washing steps were performed under red visible light illumination at 635 nm to ensure binding conditions. Following this, the elution of bound immunoglobulin G (IgG) was initiated by switching the illumination to blue visible light at 465 nm, which induces the release of the bound IgG. The resin was regenerated by again illuminating with red visible light at 635 nm, preparing it for subsequent use. […]

Molecule	binding and light-controlled elution of IgG (chromatogram) [3]	further results
COc1cc(-c2ccc(NC(=O)CCl)c(C(=O)NCC(=O)O)c2)cc(OC)c1/N=N/c1c(OC)cc(-c2ccc(NC(=O)CCl)c(C(=O)NCC(=O)O)c2)cc1OC [PS2, 4′-(2-(4-(2-chloroacetamido)-3′,5′-dimethoxybiphenyl-3-ylcarboxyamido)acetic acid)-4′-(2-(4-(2-chloroacetamido)-3′,5′-dimethoxybiphenyl-3-ylcarboxyamido)acetic acid)diazene]	–	stability in the presence of TCEP [1]: stable
O=C(O)CNC(=O)c1cc(-c2cc(F)c(/N=N/c3c(F)cc(-c4ccc(NC(=O)CCl)c(C(=O)NCC(=O)O)c4)cc3F)c(F)c2)ccc1NC(=O)CCl [PS4, 4′-(2-(4-(2-chloroacetamido)-3′,5′-difluorobiphenyl-3-ylcarboxyamido)acetic acid)-4′-(2-(4-(2-chloroacetamido)-3′,5′-difluorobiphenyl-3-ylcarboxyamido)acetic acid)diazene]	–	t1/2 (cis→trans) [2]: ≥ 1 days
B1	elution of specifically bound IgG molecules is initiated by blue light illumination	–
B2	elution of specifically bound IgG molecules is initiated by blue light illumination	–
